Reference: patent US20090131470A1, “PYRAZOLE-SUBSTITUTED BENZIMIDAZOLE DERIVATIVES FOR USE IN THE TREATMENT OF CANCER AND AUTOIMMUNE DISORDERS” (priority 2005, published 2009)

Columns and labels:
Format in all cases: biochemical
[1] = target: CDK-2 enzyme, complexed with cyclin A (Homo sapiens, UniProt P24941); test: CDK2 kinase assay (33P peptide phosphorylation); conditions: 0.1 mM ATP, cyclin A complex
Procedure: (§1) The assay mixture containing the inhibitor and CDK-2 enzyme, complexed with cyclin A (0.4 U/ml) was mixed together in a microtiter plate in a final volume of 50 μl and incubated for 40 min at 30° C. The assay mixture contained 0.1 mM unlabeled ATP, 0.01 μCi/μl ^33P-γ-ATP, 0.03 mM peptide, 0.1 mg/ml BSA, 7.5 mM magnesium acetate, 50 mM HEPES-NaOH, pH 7.5. The reaction was stopped by adding 50 μl of 50 mM phosphoric acid. 90 μl of the mixture were transferred to a pre-wetted 96-well Multiscreen MAPHNOB filtration plate (Millipore) and filtered on a vacuum manifold. The filter plate was washed with 3 successive additions of 200 μl 50 mM phosphoric acid and then with 100 μl methanol. The filtration plate was dried for 10 min at 65° C., scintillant added and phosphorylated peptide quantified in a scintillation counter (Trilux, PerkinElmer)

PDK1 = target: T1, PDK1 (Homo sapiens, UniProt O15530); test: PDK1 kinase assay (33P peptide phosphorylation); conditions: 0.01 mM ATP, 60 min at 30° C.; read-out: PDK-1 IC50
T1 sequence (O15530 1-556): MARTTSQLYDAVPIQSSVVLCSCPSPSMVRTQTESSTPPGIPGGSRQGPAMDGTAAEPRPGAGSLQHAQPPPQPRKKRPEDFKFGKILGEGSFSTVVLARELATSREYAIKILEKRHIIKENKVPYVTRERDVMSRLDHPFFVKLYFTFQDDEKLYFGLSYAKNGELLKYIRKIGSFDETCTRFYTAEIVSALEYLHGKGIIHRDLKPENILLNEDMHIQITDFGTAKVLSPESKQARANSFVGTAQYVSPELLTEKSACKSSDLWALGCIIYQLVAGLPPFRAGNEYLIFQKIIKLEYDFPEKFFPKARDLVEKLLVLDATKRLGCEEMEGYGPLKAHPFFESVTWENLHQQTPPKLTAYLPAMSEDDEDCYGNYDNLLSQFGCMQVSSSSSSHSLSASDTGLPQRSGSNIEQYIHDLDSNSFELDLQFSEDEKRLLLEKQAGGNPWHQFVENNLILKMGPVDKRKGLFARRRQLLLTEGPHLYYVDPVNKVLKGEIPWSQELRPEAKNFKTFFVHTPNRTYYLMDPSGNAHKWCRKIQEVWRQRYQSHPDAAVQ
Procedure: as §1, with “and PDK1 enzyme” for “and CDK-2 enzyme, complexed with cyclin A (0.4 U/ml)”, “for 60” for “for 40”, “contained 0.01” for “contained 0.1”, “^33P-γ-ATP, 0.075” for “^33P-γ-ATP, 0.03”, “acetate, 0.05M Tris.HCl,” for “acetate, 50 mM HEPES-NaOH,”, “pH 7.5, 0.5% 2-mercaptoethanol.” for “pH 7.5.”

GST-Chk1 enzyme = target: T2, GST-Chk1 enzyme (Homo sapiens, UniProt O14757); test: Chk1 kinase assay (33P Chktide phosphorylation); conditions: 0.01 mM ATP, 40 minutes at 30° C.; read-out: CHK-1 IC50
T2 sequence (O14757 1-476): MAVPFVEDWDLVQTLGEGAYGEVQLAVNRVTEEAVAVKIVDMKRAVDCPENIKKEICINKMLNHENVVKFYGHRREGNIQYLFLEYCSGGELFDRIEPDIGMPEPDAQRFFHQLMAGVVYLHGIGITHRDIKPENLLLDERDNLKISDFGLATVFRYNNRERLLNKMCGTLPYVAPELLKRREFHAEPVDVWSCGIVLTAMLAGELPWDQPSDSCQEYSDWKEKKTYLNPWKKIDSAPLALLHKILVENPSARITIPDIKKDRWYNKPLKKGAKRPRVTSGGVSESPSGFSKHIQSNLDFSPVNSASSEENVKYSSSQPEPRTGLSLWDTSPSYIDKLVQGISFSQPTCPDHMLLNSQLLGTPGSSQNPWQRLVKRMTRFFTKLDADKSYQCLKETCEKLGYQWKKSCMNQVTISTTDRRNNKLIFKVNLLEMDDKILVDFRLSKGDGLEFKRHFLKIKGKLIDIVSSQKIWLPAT
Procedure: as §1, with “and Chk1 enzyme” for “and CDK-2 enzyme, complexed with cyclin A (0.4 U/ml)”, “40 minutes” for “40 min”, “C. […]” for “C. The assay mixture contained 0.1 mM unlabeled ATP, 0.01 μCi/μl ^33P-γ-ATP, 0.03 mM peptide, 0.1 mg/ml BSA, 7.5 mM magnesium acetate, 50 mM HEPES-NaOH, pH 7.5.”, “mixture was” for “mixture were”, “96-well multi-screen” for “96-well Multiscreen”

Akt1 = target: T3, Akt1 (Homo sapiens, UniProt P31749); test: Akt1 kinase assay (Histone H1 substrate); conditions: 200 μM ATP, read-out: AKT-1 IC50
T3 construct: purchased Upstate
T3 sequence (P31749 whole entry, species assumed): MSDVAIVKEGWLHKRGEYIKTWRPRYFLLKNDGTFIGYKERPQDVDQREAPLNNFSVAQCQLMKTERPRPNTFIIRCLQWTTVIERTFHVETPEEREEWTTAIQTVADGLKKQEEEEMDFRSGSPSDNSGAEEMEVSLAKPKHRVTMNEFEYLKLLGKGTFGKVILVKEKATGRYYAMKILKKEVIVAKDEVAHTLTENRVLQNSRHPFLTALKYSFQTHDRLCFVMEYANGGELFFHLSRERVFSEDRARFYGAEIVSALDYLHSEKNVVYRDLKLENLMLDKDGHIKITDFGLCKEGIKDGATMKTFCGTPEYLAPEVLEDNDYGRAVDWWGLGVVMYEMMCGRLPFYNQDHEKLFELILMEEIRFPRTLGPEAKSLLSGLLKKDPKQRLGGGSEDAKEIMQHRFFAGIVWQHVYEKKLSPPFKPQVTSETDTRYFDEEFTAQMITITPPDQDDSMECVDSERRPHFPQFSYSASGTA
Procedure: Assays for the cyclin dependent kinase activity were carried out by monitoring the phosphorylation of a synthetic peptide, HATTPKKKRK. The assay mixture containing the inhibitor and CDK-2 enzyme, complexed with cyclin A (0.4 U/ml) was mixed together in a microtiter plate in a final volume of 50 μl and incubated for 40 min at 30° C. The assay mixture contained 0.1 mM unlabeled ATP, 0.01 μCi/μl ^33P-γ-ATP, 0.03 mM peptide, 0.1 mg/ml BSA, 7.5 mM magnesium acetate, 50 mM HEPES-NaOH, pH 7.5. The reaction was stopped by adding 50 μl of 50 mM phosphoric acid. 90 μl of the mixture were transferred to a pre-wetted 96-well Multiscreen MAPHNOB filtration plate (Millipore) and filtered on a vacuum manifold. The filter plate was washed with 3 successive additions of 200 μl 50 mM phosphoric acid and then with 100 μl methanol. The filtration plate was dried for 10 min at 65° C., scintillant added and phosphorylated peptide quantified in a scintillation counter (Trilux, PerkinElmer)
Protocol for the Akt assay is the same for CDK2 except that, 3 nM Akt1 (Upstate) was used with Histone H1 as substrate with a final ATP concentration of 200 μM. The reaction was incubated at 30° C. for 40 minutes.

PKA = target: T4, PKA (Homo sapiens, UniProt P17612); test: PKA kinase assay (Kemptide substrate); conditions: 100 μM ATP
T4 construct: purchased Upstate
Procedure: as §1
The PKA assay was incubated at 30° C. for 30 minutes.

| SMILES | IC50 [1] [nM] | IC50 (PDK1) [nM] | IC50 (GST-Chk1 enzyme) [nM] | IC50 (Akt1) [nM] | IC50 (PKA) [nM] |
| --- | --- | --- | --- | --- | --- |
| Cc1[nH]nc(-c2nc3cc(C#N)ccc3[nH]2)c1C(=O)NC1CCNCC1 [Example 18] | 12200 | 311 | 137 | > 50000 | 22600 |
| Cc1[nH]nc(-c2nc3ccc(C(C)(C)C)cc3[nH]2)c1C(=O)N[C@@H]1CN2CCC1CC2 [Example 41] | > 50000 | 52 | 25 | > 10000 | 2120 |
| Cc1[nH]nc(-c2nc3ccccc3[nH]2)c1C(=O)NC1CCNCC1 [Example 1, 3-(1H-Benzoimidazol-2-yl)-5-methyl-1H-pyrazole-4-carboxylic Acid piperidin-4-ylamide] | 3300 | 108 | 98 | 17100 | 7260 |
| Cc1[nH]nc(-c2nc3cc(Cl)c(Cl)cc3[nH]2)c1C(=O)NC1CCNCC1 [Example 15] | 4770 | 123 | 295 | > 50000 | 8850 |
| Cc1[nH]nc(-c2nc3ccc(C(C)C)cc3[nH]2)c1C(=O)NC1CN2CCC1CC2 (stereo not drawn) [Example 42] | 9670 | 45 | 50 | > 10000 | 3820 |
| Cc1[nH]nc(-c2nc3ccccc3[nH]2)c1C(=O)NCCCN [Example 4, 3-(1H-Benzoimidazol-2-yl)-5-methyl-1H-pyrazole-4-carboxylic Acid (3-amino-propyl)-amide] | 39800 | 212 | 31 | > 50000 | 20700 |
| O=C(NC1CCNCC1)c1c[nH]nc1-c1nc2ccccc2[nH]1 [Example 20] | 6360 | 323 | 252 | > 50000 | 32100 |
| Cc1[nH]nc(-c2nc3ccc(C(F)(F)F)cc3[nH]2)c1C(=O)NC1CCNCC1 [Example 38] | 19300 | 32 | 58 | > 10000 | 16900 |
| Cc1[nH]nc(-c2nc3ccc(-c4cc5ccccc5[nH]4)cc3[nH]2)c1C(=O)NC1CCNCC1 [Example 8, 3-[6-(1H-Indol-2-yl)-1H-benzimidazo-2-yl]-5-methyl-1H-pyrazole-4-carboxylic Acid piperidin-4-ylamide] | 2800 | 19 | 12 | 5840 | 1340 |
| Cc1[nH]nc(-c2nc3cc(C(=O)NC(C)C)ccc3[nH]2)c1C(=O)NC1CCNCC1 [Example 24] | 6420 | 46 | 36 | 34500 | 10700 |
| Cc1[nH]nc(-c2nc3cc4nc[nH]c4cc3[nH]2)c1C(=O)NC1CCNCC1 [Example 11] | 38900 | 120 | 88 | > 50000 | 7770 |
| Cc1[nH]nc(-c2nc3ccc(C(F)(F)F)cc3[nH]2)c1C(=O)NCC1CCCNC1 (stereo not drawn) [Example 39] | > 50000 | 86 | 49 | > 10000 | > 50000 |
| Cc1[nH]nc(-c2nc3cc4ccccc4cc3[nH]2)c1C(=O)NCC1CCCN1 (stereo not drawn) [Example 26] | 34200 | 521 | 309 | > 50000 | 34700 |
| Cc1[nH]nc(-c2nc3ccccc3[nH]2)c1C(=O)NC1CCN(C)CC1 [Example 30] | 2210 | 139 | 63.5 | 11800 | 20200 |
| Cc1[nH]nc(-c2nc3ccc(C(C)(C)C)cc3[nH]2)c1C(=O)NC1CCNCC1 [Example 37] | 1850 | 49 | 6 | > 10000 | 4950 |
| Cc1cc2nc(-c3n[nH]c(C)c3C(=O)NC3CCCN(C)C3)[nH]c2cc1C (stereo not drawn) [Example 3, 3-(5,6-Dimethyl-1H benzoimidazole-2-yl)-5-methyl-1H-pyrazole-4-carboxylic Acid (1-methyl-piperidin-3-yl)-amide] | 30900 | 440 | 77 | 41300 | 23400 |
| Cc1[nH]nc(-c2nc3ccc(C(=O)NCC(O)c4ccccc4)cc3[nH]2)c1C(=O)NC1CCNCC1 (stereo not drawn) [Example 35] | 13800 | 57 | 37 | 10600 | 5310 |
| Cc1[nH]nc(-c2nc3ccc(C4CC4)cc3[nH]2)c1C(=O)NC1CCNCC1 [Example 40] | 23700 | 20 | 22 | > 10000 | 2860 |
| Cc1[nH]nc(-c2nc3ccc(NC(=O)C(C)C)cc3[nH]2)c1C(=O)NC1CCN(C)CC1 [Example 21] | 21300 | 74 | 6 | > 50000 | 13100 |
| Cc1cc2nc(-c3n[nH]c(C)c3C(=O)NC3CCCNC3)[nH]c2cc1C (stereo not drawn) [Example 2, 3-(5,6-Dimethyl-1H-benzoimidazol-2-yl)-5-methyl-1H-pyrazole-4-carboxylic Acid piperidin-3-ylamide] | 3600 | 219 | 55 | 15900 | 7840 |
| Cc1[nH]nc(-c2nc3ccc(C(C)C)cc3[nH]2)c1C(=O)NC1CC2CCC(C1)N2C (stereo not drawn) [Example 49] |  | < 500 | < 500 |  |  |
| Cc1[nH]nc(-c2nc3ccccc3[nH]2)c1C(=O)NCCN [Example 50] |  | < 500 | < 500 |  |  |
| Cc1[nH]nc(-c2nc3ccc(C(=O)NC4CCc5ccccc54)cc3[nH]2)c1C(=O)NC1CCNCC1 (stereo not drawn) [Example 48] |  | < 50 |  |  |  |
